Results reported in PubChem BioAssay AID1963432 (Molecular Pharmacology Branch, DTP, NCI, 2024).

Tested on: SYO-1 complex spheroid growth, percent test/control
Assay: Anticancer human tumor SYO-1 cell line growth inhibition [Asc];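 also: compound exposure lasted 7 days after spheroids grew 3 days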;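 as to viability, T/C: 100% = DMSO vehicle control viability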
Conditions: for IC50: curve of first compound; for viability, T/C: stronger effect = lower value
Method: Multicellular complex tumor spheroid response to apoptosis pathway targeting inhibitors Alrizomadlin, Pelcitoclax, and Dasminapant in combination with a variety of drugs and investigational agents in selected tumor cell lines
The MDM2 inhibitor alrizomadlin, the Bcl-2/Bcl-xL inhibitor pelcitoclax, and the IAPs inhibitor dasminapant were evaluated both individually and in combination with standard of care and investigational anticancer small molecules within a complex spheroid model of solid tumors. . Complex spheroids include a stromal component modeled by human endothelial cells (HUVEC) and fibroblasts modeled by human mesenchymal stem cells (MSCs). The concentration ranges selected for each drug and investigational agent were based upon clinically achievable concentrations if the clinical Cmax of the agent was known.
Compounds. The drugs and investigational agents: alrizomadlin (APG-115; NSC831270), pelcitoclax (APG-1252; NSC835773), dasminapant (APG-1387;NSC834197), TAK-243 (NSC785004), copanlisib (NSC809693), olaparib (NSC753686), talazoparib (NSC767125), cobimetinib (NSC 768068), eltanexor (KPT-8602, NSC 794443), abemaciclib (NSC 768073), sotorasib (NSC818433), adagrasib (NSC 831453), MRTX-1133 (NSC 836407), Iadademestat (ORY1001, NSC 806812), and RMC-4630 (NSC839698), were obtained from the NCI Developmental Therapeutics Program Chemical Repository. The FDA-approved anticancer drug set is available from the Developmental Therapeutics Program at https://dtp.cancer.gov/organization/dscb/obtaining/available plates.htm. […] The stock solutions were prepared in dimethyl sulfoxide (DMSO, Sigma-Aldrich, St. Louis, MO, cat. D2650) at 800-fold the tested concentration and stored at -70 degrees C prior to their use. All drugs and investigational agents were tested over a range starting from a high concentration at or near the clinical Cmax and decreasing in half-log increments. If the clinical Cmax for an agent had not been determined, the highest concentration tested was 10 microM.
The patient-derived cancer (PDC) cell lines include five colon adenocarcinomas: 186277-243-T-J2-PDC, 616215-338-R-J1-PDC, 439559-082-T-J2-PDC, 463943-066-T-J2-PDC, and 519858-162-T-J1-PDC; three pancreatic carcinomas: 323965-272-R-J2-PDC, 521955-158-R6-J3-PDC, and 521955-158-R2-J5-PDC; two uterine sarcomas: 327498-152-R-J2-PDC and 993429-296-R-J1-PDC; two rhabdomyosarcomas: 755483-174-R-J1-PDC and 772245-204-R-J1-PDC; two soft tissue sarcomas: 126254-015-R-J1-PDC and 494315-158-R-J1-PDC; two malignant fibrous histiocytomas: 317291-083-R-J1-PDC and 596521-263-R-J1-PDC; two breast carcinomas: 171881-019-R-J1-PDC and 885512-296-R-J2-PDC; and one ovarian carcinoma: 6556581-035-R-J-PDC were obtained from the NCI PDMR, (https://pdmr.cancer.gov). The established cell lines HSSY-2 synovial sarcoma (RRID:CVCL 8719), SYO-1 synovial sarcoma (RRID:CVCL_7146), MPNST malignant peripheral neural sheath tumor were obtained from the Sloan Kettering Institute. The following established cell lines were purchased from the American Type Culture Collection (ATCC, Manassas, VA), Sor the received from the NCI repository:, PANC-1 pancreatic carcinoma (CRL-1469, RRID:CVCL_0480), OVCAR-5 ovarian carcinoma (RRID:CVCL_1628), OVCAR-8 ovarian carcinoma (RRID:CVCL_1629), , MCF-7 breast carcinoma (CRL-12584, RRID:CVCL_0031), MDA-MB-231 breast carcinoma (CRL-12532, RRID:CVCL_0062), NCI-H1876 small cell lung carcinoma (CRL-5902, RRID:CVCL_1503), NCI-H510A small cell lung carcinoma (HTB-184, RRID:CVCL_1565), NCI-H1417 (CRL-5869, RRID:CVCL_1469), and NCI-H196 small cell lung carcinoma (CRL-5823, RRID:CVCL_1509). Dr. Peter Houghton (Greehey Children's Cancer Research Institute, University of Texas Health Science Center, San Antonio, TX) provided Rh-18 rhabdomyosarcoma (RRID:CVCL_1659). Pooled donor human umbilical vein endothelial cells (HUVEC, Lonza, cat. CC-2519) and human mesenchymal stem cells (hMSC, Lonza, cat. PT-2501) were purchased from Lonza (Walkersville, MD).
Cell Culture. […]

SMILES: CCN1CCN(Cc2ccc(Nc3ncc(F)c(-c4cc(F)c5nc(C)n(C(C)C)c5c4)n3)nc2)CC1 + Cc1c(S(C)(=O)=O)c(-c2cc(F)cc(N3CCN(c4ccc(NS(=O)(=O)c5ccc(NC(CCN6CCC(C(=O)OCCCP(=O)(O)O)CC6)CSc6ccccc6)c(S(=O)(=O)C(F)(F)F)c5)cc4)CC3)c2)c(-c2ccc(Cl)cc2)n1C(C)C
- IC50 (second compound 0.0316 µM): > 1000 nM
- IC50 (second compound 0.1 µM): > 1000 nM
- IC50 (second compound 0.316 µM): > 1000 nM
- IC50 (second compound 1 µM): > 1000 nM
- IC50 (second compound 3.16 µM): > 1000 nM
- IC50 (second compound 10 µM): > 1000 nM
- viability, T/C (second compound 0.0316 µM, first compound 0.00316 µM): 102%
- viability, T/C (second compound 0.0316 µM, first compound 0.01 µM): 99.2%
- viability, T/C (second compound 0.0316 µM, first compound 0.0316 µM): 109%
- viability, T/C (second compound 0.0316 µM, first compound 0.1 µM): 111%
- viability, T/C (second compound 0.0316 µM, first compound 0.316 µM): 121%
- viability, T/C (second compound 0.0316 µM, first compound 1 µM): 106%
- viability, T/C (second compound 0.1 µM, first compound 0.00316 µM): 99.8%
- viability, T/C (second compound 0.1 µM, first compound 0.01 µM): 101%
- viability, T/C (second compound 0.1 µM, first compound 0.0316 µM): 97.8%
- viability, T/C (second compound 0.1 µM, first compound 0.1 µM): 113%
- viability, T/C (second compound 0.1 µM, first compound 0.316 µM): 116%
- viability, T/C (second compound 0.1 µM, first compound 1 µM): 109%
- viability, T/C (second compound 0.316 µM, first compound 0.00316 µM): 103%
- viability, T/C (second compound 0.316 µM, first compound 0.01 µM): 99.1%
- viability, T/C (second compound 0.316 µM, first compound 0.0316 µM): 108%
- viability, T/C (second compound 0.316 µM, first compound 0.1 µM): 108%
- viability, T/C (second compound 0.316 µM, first compound 0.316 µM): 114%
- viability, T/C (second compound 0.316 µM, first compound 1 µM): 99.4%
- viability, T/C (second compound 1 µM, first compound 0.00316 µM): 99.7%
- viability, T/C (second compound 1 µM, first compound 0.01 µM): 105%
- viability, T/C (second compound 1 µM, first compound 0.0316 µM): 103%
- viability, T/C (second compound 1 µM, first compound 0.1 µM): 106%
- viability, T/C (second compound 1 µM, first compound 0.316 µM): 115%
- viability, T/C (second compound 1 µM, first compound 1 µM): 95.1%
- viability, T/C (second compound 3.16 µM, first compound 0.00316 µM): 92.7%
- viability, T/C (second compound 3.16 µM, first compound 0.01 µM): 93.7%
- viability, T/C (second compound 3.16 µM, first compound 0.0316 µM): 110%
- viability, T/C (second compound 3.16 µM, first compound 0.1 µM): 107%
- viability, T/C (second compound 3.16 µM, first compound 0.316 µM): 110%
- viability, T/C (second compound 3.16 µM, first compound 1 µM): 92.2%
- viability, T/C (second compound 10 µM, first compound 0.00316 µM): 87.5%
- viability, T/C (second compound 10 µM, first compound 0.01 µM): 82.5%
- viability, T/C (second compound 10 µM, first compound 0.0316 µM): 80%
- viability, T/C (second compound 10 µM, first compound 0.1 µM): 94.2%
- viability, T/C (second compound 10 µM, first compound 0.316 µM): 101%
- viability, T/C (second compound 10 µM, first compound 1 µM): 86.6%

SMILES: CCN1C(C(=O)NC23CCC(C(=O)O)(CC2)CC3)C(c2cccc(Cl)c2F)C2(C(=O)Nc3cc(Cl)ccc32)C12CCCCC2 (centres undefined) + Cc1c(S(C)(=O)=O)c(-c2cc(F)cc(N3CCN(c4ccc(NS(=O)(=O)c5ccc(NC(CCN6CCC(C(=O)OCCCP(=O)(O)O)CC6)CSc6ccccc6)c(S(=O)(=O)C(F)(F)F)c5)cc4)CC3)c2)c(-c2ccc(Cl)cc2)n1C(C)C
- IC50 (second compound 0.0316 µM): 131 nM
- IC50 (second compound 0.1 µM): 127 nM
- IC50 (second compound 0.316 µM): 90.6 nM
- IC50 (second compound 1 µM): 64.8 nM
- IC50 (second compound 3.16 µM): 44.3 nM
- IC50 (second compound 10 µM): 35.7 nM
- viability, T/C (second compound 0.0316 µM, first compound 0.00949 µM): 97.6%
- viability, T/C (second compound 0.0316 µM, first compound 0.03 µM): 88.5%
- viability, T/C (second compound 0.0316 µM, first compound 0.0949 µM): 65%
- viability, T/C (second compound 0.0316 µM, first compound 0.3 µM): 13.6%
- viability, T/C (second compound 0.0316 µM, first compound 0.949 µM): 2.07%
- viability, T/C (second compound 0.0316 µM, first compound 3 µM): 0.87%
- viability, T/C (second compound 0.1 µM, first compound 0.00949 µM): 91.7%
- viability, T/C (second compound 0.1 µM, first compound 0.03 µM): 80.9%
- viability, T/C (second compound 0.1 µM, first compound 0.0949 µM): 64.2%
- viability, T/C (second compound 0.1 µM, first compound 0.3 µM): 10.4%
- viability, T/C (second compound 0.1 µM, first compound 0.949 µM): 1.25%
- viability, T/C (second compound 0.1 µM, first compound 3 µM): 0.54%
- viability, T/C (second compound 0.316 µM, first compound 0.00949 µM): 86.6%
- viability, T/C (second compound 0.316 µM, first compound 0.03 µM): 78.7%
- viability, T/C (second compound 0.316 µM, first compound 0.0949 µM): 49.5%
- viability, T/C (second compound 0.316 µM, first compound 0.3 µM): 4.49%
- viability, T/C (second compound 0.316 µM, first compound 0.949 µM): 0.85%
- viability, T/C (second compound 0.316 µM, first compound 3 µM): 0.62%
- viability, T/C (second compound 1 µM, first compound 0.00949 µM): 87.4%
- viability, T/C (second compound 1 µM, first compound 0.03 µM): 77.6%
- viability, T/C (second compound 1 µM, first compound 0.0949 µM): 36.4%
- viability, T/C (second compound 1 µM, first compound 0.3 µM): 4.69%
- viability, T/C (second compound 1 µM, first compound 0.949 µM): 0.8%
- viability, T/C (second compound 1 µM, first compound 3 µM): 0.39%
- viability, T/C (second compound 3.16 µM, first compound 0.00949 µM): 77.5%
- viability, T/C (second compound 3.16 µM, first compound 0.03 µM): 63.4%
- viability, T/C (second compound 3.16 µM, first compound 0.0949 µM): 23.8%
- viability, T/C (second compound 3.16 µM, first compound 0.3 µM): 2.4%
- viability, T/C (second compound 3.16 µM, first compound 0.949 µM): 0.61%
- viability, T/C (second compound 3.16 µM, first compound 3 µM): 0.43%
- viability, T/C (second compound 10 µM, first compound 0.00949 µM): 75.9%
- viability, T/C (second compound 10 µM, first compound 0.03 µM): 56.7%
- viability, T/C (second compound 10 µM, first compound 0.0949 µM): 12.4%
- viability, T/C (second compound 10 µM, first compound 0.3 µM): 2.09%
- viability, T/C (second compound 10 µM, first compound 0.949 µM): 0.69%
- viability, T/C (second compound 10 µM, first compound 3 µM): 0.46%
